Assay results reported in patent US9169252B2 (BRISTOL-MYERS SQUIBB COMPANY, priority 2014, dated 2015).
pEC50, pIC50: −log10 of the molar value. Read-outs that look alike come from different tables or passages of the source.

Legend:
IRAK4 = IRAK4 (Homo sapiens (Human), UniProt Q9NWZ3); test: IRAK4 Inhibition Assay; format: biochemical; conditions: ATP 500 μM, read-out: IRAK4 IC50
Summary of the method: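 Mobility-shift readout: fluorescent substrate and phosphoproduct resolved electrophoretically on Caliper LabChip 3000 after EDTA quench (35 mM). Enzyme reaction of IRAK4, substrates and test compound ran 60 min at room temperature.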

[1] = test system: TLR2 induced IL-6 in peripheral blood mononuclear cells (PBMCs); test: PBMC TLR2 Induced IL-6 Assay; format: cell-based, human; conditions: IL-6 by ELISA; for pEC50: read-out: Cell EC50; for pIC50: read-out: Cell IC50
Summary of the method: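 Lipoteichoic acid at 10 µg/ml served as TLR2 stimulus for 5 hours, following a 30-minute compound pretreatment at 37° C. Cells were Ficoll-isolated human PBMCs, 250000 cells/well, cultured in RPMI plus 10% heat-inactivated FCS.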

[2] = Homo sapiens, PBMC, PBMC TLR2 Induced IL-6 Assay, lipoteichoic acid stimulation
[3] = human PBMCs, lipoteichoic acid stimulated
[4] = Homo sapiens, PBMC, human PBMCs, lipoteichoic acid stimulated

Sequence of IRAK4 (Q9NWZ3 whole entry, species assumed): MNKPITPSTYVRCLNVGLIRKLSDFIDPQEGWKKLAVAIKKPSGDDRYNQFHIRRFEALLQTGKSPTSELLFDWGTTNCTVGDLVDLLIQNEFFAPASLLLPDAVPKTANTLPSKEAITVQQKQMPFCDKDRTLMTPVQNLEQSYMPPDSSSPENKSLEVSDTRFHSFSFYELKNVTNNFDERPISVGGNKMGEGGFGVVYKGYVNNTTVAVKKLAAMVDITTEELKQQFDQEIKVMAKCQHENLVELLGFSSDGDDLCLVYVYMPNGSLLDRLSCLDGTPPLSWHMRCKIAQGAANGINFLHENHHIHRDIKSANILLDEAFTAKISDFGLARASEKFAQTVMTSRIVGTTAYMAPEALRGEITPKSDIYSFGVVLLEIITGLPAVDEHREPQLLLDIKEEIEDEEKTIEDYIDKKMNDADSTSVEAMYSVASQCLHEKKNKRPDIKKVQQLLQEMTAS

| SMILES | pIC50 (IRAK4; IRAK4 Inhibition Assay) | pEC50 [1, 2] | further results |
| --- | --- | --- | --- |
| CNC(=O)[C@H](F)CNC(=O)c1cnc(-n2ncc3cc(C#N)cnc32)cc1NC(C)C [Example 229] | 8.02 | 6.86 | pIC50 [1, 2]: 5.85 |
| CC(C)(O)[C@H](F)CNC(=O)c1cnc(-n2ccc3cc(C#N)cnc32)cc1N[C@@H]1COC[C@H]1O [Example 456] | – | – | pIC50 (IRAK4; IRAK4 0.6 nM): 8.32; pEC50 [1, 3]: 6.62 |
| CC(C)(O)[C@H](F)CNC(=O)c1cnc(-n2ncc3cc(Cl)cnc32)cc1Nc1cnn(CC(F)F)c1 [Example 351] | 8.64 | – | pIC50 [1, 2]: 7.57 |
| CC(C)(O)[C@H](F)CNC(=O)c1cnc(-n2ccc3cc(C#N)cnc32)cc1Nc1cnn(CC(F)(F)F)c1 [Example 371] | 8.68 | – | pIC50 [1, 2]: 7.35 |
| CC(C)Nc1cc(-n2ncc3cc(C#N)cnc32)ncc1C(=O)NCCC1(O)CCOCC1 [Example 235] | 8.21 | 6.74 | – |
| COC1CCN(c2ccc(NC(=O)c3cnc(-n4ncc5cc(C#N)cnc54)cc3NC(C)C)cn2)CC1 [Example 247] | 8.17 | 6.76 | – |
| CC(C)(O)CCNC(=O)c1cnc(-n2ncc3cc(C#N)cnc32)cc1NC1COC1 [Example 553] | – | – | pIC50 (IRAK4; IRAK4 0.6 nM): 7.95; pIC50 [1, 4]: 6.53 |
| CC(C)Nc1cc(-n2ccc3cc(CNC(=O)Cc4ccccc4)cnc32)ncc1C(=O)NC[C@@H](F)C(C)(C)O [Example 515] | – | – | pIC50 (IRAK4; IRAK4 0.6 nM): 8.66; pIC50 [1, 4]: 6.27 |
| CC(C)(O)CNc1cc(-n2ccc3cc(C#N)cnc32)ncc1C(=O)NC[C@@H](F)C(C)(C)O [Example 77, (R)-6-(5-cyano-1H-pyrrolo[2,3-b]pyridin-1-yl)-N-(2-fluoro-3-hydroxy-3-methylbutyl)-4-((2-hydroxy-2-methylpropyl)amino)nicotinamide] | 8.59 | – | pIC50 [1, 2]: 6.79 |
| Cc1cnc2c(cnn2-c2cc(NC(C)C)c(C(=O)NC[C@@H](F)C(C)(C)O)cn2)c1 [Example 155, (R)—N-(2-fluoro-3-hydroxy-3-methylbutyl)-4-(isopropylamino)-6-(5-methyl-1H-pyrazolo[3,4-b]pyridin-1-yl)nicotinamide] | 8.15 | 6.79 | – |
| CC(C)NC(=O)c1cnc(-n2ncc3cc(C#N)cnc32)cc1Nc1cnn(CC(F)F)c1 [Example 388] | 7.95 | – | pIC50 [1, 2]: 6.61 |
| CC(C)Nc1cc(-n2ncc3cc(F)cnc32)ncc1C(=O)NC[C@@H](F)C(C)(C)O [Example 157, (R)-6-(5-fluoro-1H-pyrazolo[3,4-b]pyridin-1-yl)-N-(2-fluoro-3-hydroxy-3-methylbutyl)-4-(isopropylamino) nicotinamide] | 8.28 | 7.01 | – |
| CC(Nc1cc(-n2ncc3cc(C#N)c(N)nc32)ncc1C(=O)NC[C@@H](F)C(C)(C)O)C(F)(F)F (some centres unmarked) [Example 301] | 8.62 | – | pIC50 [1, 2]: 7.20 |
| CNC(=O)[C@H]1CC[C@H](NC(=O)c2cnc(-n3ccc4cc(C#N)cnc43)cc2NC2CC2)CC1 [Example 85, 6-(5-cyano-1H-pyrrolo[2,3-b]pyridin-1-yl)-4-(cyclopropylamino)-N-((trans)-4-(methylcarbamoyl)cyclohexyl) nicotinamide] | 7.88 | 6.28 | – |
| CC(C)(O)[C@H](F)CNC(=O)c1cnc(-n2ccc3cc(C#N)cnc32)cc1Nc1ccc(C(N)=O)cc1 [Example 60, (R)-4-((4-carbamoylphenyl)amino)-6-(5-cyano-1H-pyrrolo[2,3-b]pyridin-1-yl)-N-(2-fluoro-3-hydroxy-3-methylbutyl)nicotinamide] | 8.74 | 7.62 | – |
| CC(C)(O)[C@H](F)CNC(=O)c1cnc(-n2ncc3cc(C#N)c(N)nc32)cc1NC1CC1 [Example 631] | – | – | pIC50 (IRAK4; IRAK4 0.6 nM): 8.47; pIC50 [1, 4]: 7.18 |
| COc1ccc(CCNC(=O)c2cnc(-n3ncc4cc(C#N)cnc43)cc2NC(C)C)cc1 [Example 261] | 8.47 | – | pIC50 [1, 2]: 6.81 |
| CC(C)Nc1cc(-n2ncc3cc(C#N)cnc32)ncc1C(=O)Nc1ccc(N2CCN(C)CC2)cn1 [Example 241] | 8.14 | 6.53 | – |
| C[C@@H](CF)Nc1cc(-n2ccc3cncnc32)ncc1C(=O)NC[C@@H](F)C(C)(C)O [Example 116, N—((R)-2-fluoro-3-hydroxy-3-methylbutyl)-4-(((S)-1-fluoropropan-2-yl)amino)-6-(7H-pyrrolo[2,3-d]pyrimidin-7-yl)nicotinamide] | 8.21 | 6.88 | – |
| CC(C)(O)[C@H](F)CNC(=O)c1cnc(-n2ncc3cc(C#N)cnc32)cc1N[C@H]1CC[C@H](NC(=O)c2ccccc2F)CC1 [Example 634] | – | – | pIC50 (IRAK4; IRAK4 0.6 nM): 8.41; pIC50 [1, 4]: 6.56 |
| CC(C)Nc1cc(-n2ccc3cc(C#N)cnc32)ncc1C(=O)N[C@H]1CC[C@H](C(=O)NC2CC2)CC1 [Example 91, 6-(5-cyano-1H-pyrrolo[2,3-b]pyridin-1-yl)-N-((trans)-4-(cyclopropylcarbamoyl)cyclohexyl)-4-(isopropylamino)nicotinamide] | 8.70 | 7.49 | – |

| SMILES | pIC50 (IRAK4; IRAK4 Inhibition Assay) | pEC50 [1, 2] | further results |
| --- | --- | --- | --- |
| C[C@@H](F)CNc1cc(-n2ncc3cc(C#N)cnc32)ncc1C(=O)NC[C@@H](F)C(C)(C)O [Example 582] | – | – | pIC50 (IRAK4; IRAK4 0.6 nM): 8.42; pIC50 [1, 4]: 6.96 |
| CC(=O)N[C@H]1CC[C@H](NC(=O)c2cnc(-n3ccc4cc(C#N)cnc43)cc2NC2CCOCC2)CC1 [Example 88, N-((trans)-4-acetamidocyclohexyl)-6-(5-cyano-1H-pyrrolo[2,3-b]pyridin-1-yl)-4-((tetrahydro-2H-pyran-4-yl)amino)nicotinamide] | 8.15 | 6.46 | – |
| C[C@@H](CO)Nc1cc(-n2ccc3cc(C#N)cnc32)ncc1C(=O)NCCNS(C)(=O)=O [Example 478] | – | – | pIC50 (IRAK4; IRAK4 0.6 nM): 8.33; pEC50 [1, 4]: 6.34; pIC50 [1, 4]: 6.09 |
| CC(C)Nc1cc(-n2ncc3cc(C#N)cnc32)ncc1C(=O)Nc1ccc(OCCN(C)C)cn1 [Example 225] | 8.04 | 7.01 | – |
| CC(=O)OC(C)(C)C(=O)NCCNC(=O)c1cnc(-n2ccc3cc(C#N)cnc32)cc1NC(C)C [Example 125, 1-((2-(6-(5-Cyano-1H-pyrrolo[2,3-b]pyridin-1-yl)-4-(isopropylamino)nicotinamido)ethyl)amino)-2-methyl-1-oxopropan-2-yl acetate] | 8.17 | 6.69 | – |
| COC[C@H](F)CNC(=O)c1cnc(-n2ccc3cc(C#N)cnc32)cc1NC(C)C [Example 127, (R)-6-(5-Cyano-1H-pyrrolo[2,3-b]pyridin-1-yl)-N-(2-fluoro-3-methoxypropyl)-4-(isopropylamino)nicotinamide] | 8.55 | 7.05 | – |
| CC(C)(O)[C@H](F)CNC(=O)c1cnc(-n2ccc3cc(C#N)cnc32)cc1N[C@@H]1COC[C@H]1O [Example 455] | – | – | pIC50 (IRAK4; IRAK4 0.6 nM): 8.66; pEC50 [1, 3]: 7.14 |
| CC(C)Nc1cc(-n2ccc3cc(C#N)cnc32)ncc1C(=O)N[C@H]1CC[C@](O)(c2nccn2C)CC1 [Example 176, 6-(5-cyano-1H-pyrrolo[2,3-b]pyridin-1-yl)-N-((1 s,4s)-4-hydroxy-4-(1-methyl-1H-imidazol-2-yl)cyclohexyl)-4-(isopropylamino) nicotinamide] | 8.19 | 6.32 | – |
| CC(CCO)Nc1cc(-n2ccc3cc(C#N)cnc32)ncc1C(=O)NC[C@@H](F)C(C)(C)O (single isomer, unassigned) [Example 22] | 8.74 | – | pEC50 ([1]; PBMC TLR2 Induced IL-6 Assay, lipoteichoic acid stimulation): 7.33 |
| CC(C)Nc1cc(-n2ncc3cc(C#N)cnc32)ncc1C(=O)NCCC1(O)CCCC1 [Example 252] | 8.44 | – | pIC50 [1, 2]: 6.71 |
| COC1CCC(NC(=O)c2cnc(-n3ncc4cc(C#N)cnc43)cc2NC(C)C)CC1 (centres unmarked) [Example 198] | 8.47 | 6.87 | – |
| CC(C)(F)[C@H](F)CNC(=O)c1cnc(-n2ccc3cc(C#N)cnc32)cc1Nc1cccc(O)c1 [Example 517] | – | – | pIC50 (IRAK4; IRAK4 0.6 nM): 8.92; pIC50 [1, 4]: 6.95 |
| CCOC(C)(C)[C@H](F)CNC(=O)c1cnc(-n2ccc3cc(C#N)cnc32)cc1NC(C)C [Example 448] | – | – | pIC50 (IRAK4; IRAK4 0.6 nM): 8.62; pEC50 [1, 4]: 6.76 |
| CC(C)Nc1cc(-n2cnc3cc(Cl)cnc32)ncc1C(=O)NC[C@@H](F)C(C)(C)O [Example 339] | 8.40 | – | pIC50 [1, 2]: 6.48 |
| CC(C)(CNc1cc(-n2ncc3cc(C#N)cnc32)ncc1C(=O)NC[C@@H](F)C(C)(C)O)OC(F)F [Example 601] | – | – | pIC50 (IRAK4; IRAK4 0.6 nM): 7.85; pIC50 [1, 4]: 6.31 |
| CC(C)Nc1cc(-n2ncc3cc(C#N)c(N)nc32)ncc1C(=O)NC1CCCCC1 [Example 324] | 8.18 | – | pIC50 [1, 2]: 6.56 |
| CC(CF)Nc1cc(-n2ccc3cc(C#N)cnc32)ncc1C(=O)NC[C@@H](F)C(C)(C)O (stereo partly drawn) [Example 78, 6-(5-cyano-1H-pyrrolo[2,3-b]pyridin-1-yl)-N—((R)-2-fluoro-3-hydroxy-3-methylbutyl)-4-((1-fluoropropan-2-yl)amino)nicotinamide] | 8.54 | – | pIC50 [1, 2]: 7.20 |
| CC(C)Nc1cc(-n2ncc3cc(C#N)cnc32)ncc1C(=O)NC[C@@H](F)C(=O)N1CCN(S(C)(=O)=O)CC1 [Example 257] | 8.05 | 6.87 | – |
| CC(C)(O)[C@H](F)CNC(=O)c1cnc(-n2ncc3cc(C#N)cnc32)cc1NCC(C)(C)N1CCOCC1 [Example 570] | – | – | pIC50 (IRAK4; IRAK4 0.6 nM): 7.97; pEC50 [1, 4]: 6.37 |
| CC(C)Nc1cc(-n2ncc3cc(C#N)cnc32)ncc1C(=O)NCCc1cccnc1 [Example 276] | 8.33 | – | pIC50 [1, 2]: 6.42 |
| [2H]C([2H])([2H])OC(C)(C)[C@H](F)CNC(=O)c1cnc(-n2ncc3cc(C#N)cnc32)cc1NC(C)C [Example 210] | 8.51 | 6.69 | – |
